Common to all, as to assay: Competitive isoTOP-ABPP, cell lysates
Common to all, as to format: binding

The target of one assay is T1, AIP C122 (O00170) (Homo sapiens, UniProt O00170).
T1 sequence (O00170 1-330): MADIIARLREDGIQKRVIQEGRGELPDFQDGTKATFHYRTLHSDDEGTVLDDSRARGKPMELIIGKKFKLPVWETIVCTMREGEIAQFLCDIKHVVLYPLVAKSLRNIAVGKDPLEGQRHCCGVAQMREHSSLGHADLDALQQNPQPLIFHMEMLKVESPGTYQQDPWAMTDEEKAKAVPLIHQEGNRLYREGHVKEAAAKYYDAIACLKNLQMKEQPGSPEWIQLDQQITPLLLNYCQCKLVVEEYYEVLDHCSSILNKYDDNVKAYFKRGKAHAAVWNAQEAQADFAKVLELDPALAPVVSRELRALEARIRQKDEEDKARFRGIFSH
Particulars: for isoTOP-ABPP reactivity ratio, O00170_C122 / isoTOP-ABPP reactivity profile ratio, O00170_C122: 500 μm.

A further assay addresses T2, PDE12 C108 (Q6L8Q7) (Homo sapiens, UniProt Q6L8Q7).
T2 sequence (Q6L8Q7 43-609): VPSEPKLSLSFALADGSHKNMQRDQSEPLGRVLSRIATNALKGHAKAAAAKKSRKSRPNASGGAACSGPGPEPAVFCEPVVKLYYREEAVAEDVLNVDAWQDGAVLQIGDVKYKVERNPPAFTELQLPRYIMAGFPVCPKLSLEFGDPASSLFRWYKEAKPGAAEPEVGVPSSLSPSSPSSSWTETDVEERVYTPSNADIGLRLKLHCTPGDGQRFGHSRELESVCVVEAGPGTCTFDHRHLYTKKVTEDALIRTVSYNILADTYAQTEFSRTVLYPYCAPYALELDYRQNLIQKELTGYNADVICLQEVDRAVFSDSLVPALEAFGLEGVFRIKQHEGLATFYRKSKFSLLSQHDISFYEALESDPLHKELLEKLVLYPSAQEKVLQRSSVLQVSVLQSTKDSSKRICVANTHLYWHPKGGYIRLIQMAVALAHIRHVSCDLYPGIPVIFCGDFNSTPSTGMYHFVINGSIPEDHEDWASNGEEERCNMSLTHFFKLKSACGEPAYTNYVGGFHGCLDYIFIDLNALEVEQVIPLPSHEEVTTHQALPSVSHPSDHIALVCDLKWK
The settings on record: for isoTOP-ABPP reactivity ratio, Q6L8Q7_C108 / isoTOP-ABPP reactivity profile ratio, Q6L8Q7_C108: 500 μm.

A further assay deals with T3, PCK2 C306 (Q16822) (Homo sapiens, UniProt Q16822).
T3 sequence (Q16822 33-640): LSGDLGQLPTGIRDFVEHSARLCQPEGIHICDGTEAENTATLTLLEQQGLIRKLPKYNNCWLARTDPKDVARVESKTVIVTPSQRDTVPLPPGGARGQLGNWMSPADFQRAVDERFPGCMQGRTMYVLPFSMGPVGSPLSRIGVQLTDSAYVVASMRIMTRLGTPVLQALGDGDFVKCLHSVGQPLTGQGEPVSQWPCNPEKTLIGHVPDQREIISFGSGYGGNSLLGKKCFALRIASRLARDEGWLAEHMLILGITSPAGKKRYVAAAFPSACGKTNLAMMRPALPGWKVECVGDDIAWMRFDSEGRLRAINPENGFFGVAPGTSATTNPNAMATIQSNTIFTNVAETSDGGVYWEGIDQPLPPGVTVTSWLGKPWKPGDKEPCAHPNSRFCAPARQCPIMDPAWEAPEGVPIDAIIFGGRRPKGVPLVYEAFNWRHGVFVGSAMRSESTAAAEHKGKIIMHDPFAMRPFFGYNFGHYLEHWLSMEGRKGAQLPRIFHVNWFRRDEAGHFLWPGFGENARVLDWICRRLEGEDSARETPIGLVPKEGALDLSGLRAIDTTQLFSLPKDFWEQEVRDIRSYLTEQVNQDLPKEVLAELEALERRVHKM
The settings on record: for isoTOP-ABPP reactivity ratio, Q16822_C306 / isoTOP-ABPP reactivity profile ratio, Q16822_C306: 500 μm.

Another assay deals with IDH1 C269 (O75874) (Homo sapiens, UniProt O75874). The settings on record: for isoTOP-ABPP reactivity profile ratio, O75874_C269: in-vitro_ramos_231.

Where “and” joins values, the source holds several entries; their conditions need not be identical. Equal entries are not always repeated.
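Wherever isoTOP-ABPP reactivity profile ratio, O00170 C122 is given: Heavy/light ratio DMSO over fragment-treated so higher means more cysteine engagement.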

Chain of IDH1 C269 (O75874) (O75874 whole entry): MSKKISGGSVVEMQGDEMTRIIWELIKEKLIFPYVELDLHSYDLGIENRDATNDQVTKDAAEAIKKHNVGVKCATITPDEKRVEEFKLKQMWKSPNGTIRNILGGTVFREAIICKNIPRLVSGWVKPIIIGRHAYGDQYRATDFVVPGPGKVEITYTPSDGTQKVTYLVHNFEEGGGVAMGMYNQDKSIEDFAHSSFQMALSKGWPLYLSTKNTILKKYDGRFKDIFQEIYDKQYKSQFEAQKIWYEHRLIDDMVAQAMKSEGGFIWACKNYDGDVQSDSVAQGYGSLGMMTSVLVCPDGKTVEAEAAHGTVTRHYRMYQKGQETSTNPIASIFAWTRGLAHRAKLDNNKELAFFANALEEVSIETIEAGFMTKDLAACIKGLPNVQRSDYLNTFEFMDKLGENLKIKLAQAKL

On to `CC(C)CCOCCNC(=O)CCl` [compound 27], for which the results for the “isoTOP-ABPP ratio (reactivity profile), O00170_C122” value on AIP C122 (O00170) (500 μm in-vitro ramos) and at AIP C122 (O00170) (500 μm in-vitro ramos_231) were 1.0 and 0.4, respectively. Also, the “isoTOP-ABPP ratio (reactivity profile), Q6L8Q7_C108” value on PDE12 C108 (Q6L8Q7) (500 μm in-vitro ramos) is recorded as 1.3; on PDE12 C108 (Q6L8Q7) (500 μm in-vitro ramos_231), 0.5. The “isoTOP-ABPP ratio (reactivity profile), Q16822_C306” value was 1.1 on PCK2 C306 (Q16822) (500 μm in-vitro ramos); 1.4 and 1.5 on PCK2 C306 (Q16822) (500 μm in-vitro ramos_231).

`O=C(CCl)N1CCN(CC(=O)N2CCOCC2)CC1` [compound 29]: the “isoTOP-ABPP ratio (reactivity profile), O00170_C122” value on AIP C122 (O00170) (500 μm in-vitro ramos) is listed as 1.3. For the same compound, the “isoTOP-ABPP ratio (reactivity profile), Q16822_C306” value at PCK2 C306 (Q16822) (500 μm in-vitro ramos) turned out to be 0.5; on PCK2 C306 (Q16822) (500 μm in-vitro ramos_231) it was 1.1. In addition, at IDH1 C269 (O75874) (500 μm in-vitro ramos_231), the “isoTOP-ABPP ratio (reactivity profile), O75874_C269” value is 0.8.

For the compound `CC(C)(C)c1cc(NC(=O)CCl)on1` [compound 32], the “isoTOP-ABPP reactivity ratio, O00170_C122” value came to 1.9 at AIP C122 (O00170) (in-vitro_ramos) and 3.7 on AIP C122 (O00170) (in-vitro_ramos_231). Besides, the “isoTOP-ABPP reactivity ratio, Q6L8Q7_C108” value at PDE12 C108 (Q6L8Q7) (in-vitro_ramos) is listed as 1.9; at PDE12 C108 (Q6L8Q7) (in-vitro_ramos_231), 2.5. Further, at PCK2 C306 (Q16822) (in-vitro_ramos_231), the “isoTOP-ABPP reactivity ratio, Q16822_C306” value was 3.2.

For `O=C(CCl)N(Cc1ccc(F)cc1)C12CC3CC(CC(C3)C1)C2` [compound 34], the “isoTOP-ABPP reactivity ratio, O00170_C122” value on AIP C122 (O00170) (in-vitro_ramos_231) is 1.0.

On to `O=C(CCl)Nc1ccccc1C1CCCCCC1` [compound 35], for which, on PDE12 C108 (Q6L8Q7) (in-vitro_ramos_231), the “isoTOP-ABPP reactivity ratio, Q6L8Q7_C108” value was 0.8. The “isoTOP-ABPP reactivity ratio, Q16822_C306” value is on record as 1.0 at PCK2 C306 (Q16822) (in-vitro_ramos) and 0.9 at PCK2 C306 (Q16822) (in-vitro_ramos_231).

For the compound `C=CC(=O)N1CCC(c2noc3ccc(F)cc23)CC1` [compound 37], the “isoTOP-ABPP reactivity ratio, Q16822_C306” value at PCK2 C306 (Q16822) (in-vitro_ramos) came out at 1.0.

`C=CC(=O)Nc1cc(C)c(Br)cc1C` [compound 40]: the “isoTOP-ABPP reactivity ratio, Q6L8Q7_C108” value on PDE12 C108 (Q6L8Q7) (in-vitro_ramos_231) came out at 0.8. In addition, at IDH1 C269 (O75874) (500 μm, in-vitro_ramos), the “isoTOP-ABPP reactivity ratio, O75874_C269” value is 0.8.

For the compound `N#CC(=Cc1ccc(-c2ccccc2Cl)o1)C(N)=O` [compound 42], on AIP C122 (O00170) (in-vitro_ramos), the “isoTOP-ABPP reactivity profile ratio, O00170_C122” value is given as 0.8. On PCK2 C306 (Q16822) (in-vitro_ramos), the “isoTOP-ABPP reactivity profile ratio, Q16822_C306” value is reported as 0.8.

For the compound `COc1cc(NC(=O)CCl)cc(OC)c1` [compound 43], on AIP C122 (O00170) (in-vitro_ramos), the “isoTOP-ABPP reactivity profile ratio, O00170_C122” value was found to be 2.1. In addition, the “isoTOP-ABPP reactivity profile ratio, Q16822_C306” value on PCK2 C306 (Q16822) (in-vitro_ramos_231) worked out at 3.3. The “isoTOP-ABPP reactivity profile ratio, O75874_C269” value at IDH1 C269 (O75874) (500 μm) was determined as 0.8.

Take `CC1CCc2ccccc2N1C(=O)CCl` (centres unmarked) [compound 45]: the “isoTOP-ABPP reactivity profile ratio, Q16822_C306” value on PCK2 C306 (Q16822) (in-vitro_ramos_231) is listed as 3.3. Moreover, the “isoTOP-ABPP reactivity profile ratio, O75874_C269” value on IDH1 C269 (O75874) (500 μm) worked out at 20.0.

Regarding `C=CC(=O)N(c1ccccc1)C1CCCCC1` [compound 46], the “isoTOP-ABPP reactivity profile ratio, Q16822_C306” value at PCK2 C306 (Q16822) (in-vitro_ramos_231) was found to be 0.9. Also, the “isoTOP-ABPP reactivity profile ratio, O75874_C269” value at IDH1 C269 (O75874) (500 μm) came to 0.6.

In the case of `O=C(CCl)Nc1cccc2ncccc12` [compound 51], the “isoTOP-ABPP reactivity profile ratio, O00170_C122” value on AIP C122 (O00170) (in-vitro_ramos_231) turned out to be 1.4. The “isoTOP-ABPP reactivity profile ratio, Q16822_C306” value at PCK2 C306 (Q16822) (in-vitro_ramos) came to 0.8.

For the compound `O=C(CCl)Nc1ccc(-c2ccccc2)cc1` [compound 52], the “isoTOP-ABPP reactivity profile ratio, O00170_C122” value at AIP C122 (O00170) (in-vitro_ramos) worked out at 1.4. The “isoTOP-ABPP reactivity profile ratio, Q6L8Q7_C108” value at PDE12 C108 (Q6L8Q7) (in-vitro_ramos) is given as 6.8; at PDE12 C108 (Q6L8Q7) (in-vitro_ramos_231), 1.4. Moreover, the “isoTOP-ABPP reactivity profile ratio, Q16822_C306” value on PCK2 C306 (Q16822) (in-vitro_ramos) is reported as 1.6; on PCK2 C306 (Q16822) (in-vitro_ramos_231), 1.3.

`C=CC(=O)N1CCC(Cc2ccccc2)CC1` [compound 53]: the “isoTOP-ABPP reactivity profile ratio, O00170_C122” value at AIP C122 (O00170) (in-vitro_ramos) turned out to be 0.9. The “isoTOP-ABPP reactivity profile ratio, Q6L8Q7_C108” value on PDE12 C108 (Q6L8Q7) (in-vitro_ramos) amounted to 1.1. Also, on PCK2 C306 (Q16822) (in-vitro_ramos_231), the “isoTOP-ABPP reactivity profile ratio, Q16822_C306” value is listed as 1.3.

(Values after US10670605B2, “Cysteine reactive probes and uses thereof” (The Scripps Research Institute, priority 2015, dated 2020).)
